# Publication PMC4684500, “Diversity, Antimicrobial Action and Structure-Activity Relationship of Buffalo Cathelicidins” (PLoS ONE, 2015)
# Where no end group is shown, it is not given here.
# What was measured:
# [1] = tested on: Stahylococcus aureus NCDC-0111; type: cell-based, Staphylococcus aureus; conditions: 24 h
# Method: (§1) The buCATHL4 peptides were synthesized by G L Biochem (Shanghai, China). Purity and molecular mass of the peptides were provided by the vendors using HPLC and mass spectrometry, respectively. The purity of all peptides were >98%. Minimum inhibitory concentrations (MIC) of buCATHL4s against the pathogenic microorganisms were tested by broth micro-dilution technique. Briefly, bacteria were grown in Mueller Hinton broth (Sigma-Aldrich, MO, USA) at 37°C. The OD of early-log phase cultures were adjusted to 0.08–0.1 and further diluted (1:200) to keep inoculums concentration nearly 10^6 colony forming units (CFU)/ml. Diluted peptides (10 μl) were mixed with equi-volume solution A (0.02% acetic acid containing 0.4% BSA) and were serially diluted in the solution B (0.01% acetic acid containing 0.2% BSA). Bacterial inoculums (90 μl) were mixed with serially diluted peptides and incubated at 37°C for 24 h without shaking. […] All peptides were tested in triplicate. For time kill kinetics experiments, peptides (1×, 2× and 4× MIC) were added to bacterial suspension of Staphylococcus aureus, Salmonella enterica and Pseudomonas aeruginosa, as described in the MIC determination method. Aliquots of representative wells were diluted and plated on Muller Hinton agar plates at 0, 1, 4, 12 and 24 h intervals. Water with 0.01% acetic acid and ampicillin (100 mg/ml) were taken as […] controls, respectively. The results were represented as log CFU/ml.
# [2] = tested on: Stahylococcus aureus ATCC-29213; type: cell-based, Staphylococcus aureus; conditions: ATCC-29213, 24 h
# Method: as §1
# S. aureus [3] = assay: Scanning and transmission electron microscopy; type: cell-based, Staphylococcus aureus; conditions: lower concentrations (≤2× MIC)
# Method: (§2) Early log phase cultures of S. aureus and S. enterica were subjected to different concentration of peptides and incubated at 37°C. The bacterial pellets after centrifugation (5000 g for 10 min) were washed with 0.1M cacodylate buffer (pH 7.2) and were fixed in 2.5% gluteraldehyde at 4°C for 2 h. For scanning electron microscopy, bacteria were dehydrated using gradient series of ethanol wash (30, 50, 70, 90 and absolute). The samples were air-dried overnight, gold coated (Eiko IB-3 ion coater), and viewed in a Zeiss EVO 18 Special Edition SEM. For transmission electron microscopy, fixed samples were adhered to hexagonal PELCO® Grids (Ted Pella, Inc. USA), washed once with Mili-Q water and stained with uranyl acetate (2%) buffer. Samples were viewed in a JEM 1011 (Jeol, Japan) microscope.
# P. aeruginosa biofilm = assay: Biofilm assay (crystal violet); type: cell-based, Pseudomonas aeruginosa; conditions: peptide at 1× and 2× MIC, 24 h 37°C, crystal violet A570
# Method: (§3) The efficacy of peptides against biofilms of S. aureus and P. aeruginosa was determined using previously described method. Overnight grown bacterial cultures were diluted (1:100) and 200 μl suspensions were mixed with each peptide (1× and 2× MIC) in a 96 well plate and incubated for 24 h at 37°C. Biofilms were fixed with paraformadehyde solution, cultures were decanted and 0.1% crystal violet solution was added to stain the film. The plate was rinsed thrice with water and air-dried. The stain was dissolved by 100 μl of acetic acid (30%) and absorbance was measured at 570 nm. The experiment was performed in triplicate, 30% acetic acid was taken as a blank.
# [4] = tested on: S. aureus, S. typhimurium and P. aeruginosa; assay: Time kill kinetics, three pathogens; type: cell-based; conditions: peptide at 4× MIC
# Method: as §1
# S. aureus [5] = assay: LIVE/DEAD BacLight membrane permeability assay; type: cell-based, Staphylococcus aureus; conditions: peptide 200μM, log phase culture, SYTO9/PI
# Method: (§4) The damage to bacterial membrane following addition of peptide was assessed by BacLight kit (Life Technologies, CA, USA). Aliquots of S. aureus, S. enterica and P. aeruginosa cultures from exponential (shaking incubation for 2, 3, and 4 h, respectively) and stationary phases (overnight incubation) were harvested by centrifugation (5000 g for 10 min) and diluted in PBS. Peptides (200μM) were added to bacterial suspension and 50 μl aliquots were removed immediately or after 1 h incubation. Equi-volume mixtures of SYTO9/PI (3 μl/ml bacterial suspension) were added to these aliquots and fluorescent micrographs of stained bacteria were taken at 1000×magnification in a microscope (Olympus BX51 fitted with DP71 camera) with a fluorescence illuminator system.
# PBMCs = assay: In vitro cytokine response, qRT-PCR; type: cell-based, buffalo; conditions: peptide 500 nM, 1 h, qRT-PCR vs PBS control, p<0.05
# Method: For measurement of in vitro cytokine response, PBMCs were isolated from blood and maintained in serum-free RPMI-1640 (Sigma Aldrich, MO, USA) medium. Cells were exposed to peptides (500 nM), muramyl-di-peptide (Invivogen, San Diego, CA) [MDP (10 μg/ml) as positive control] and PBS (negative control). Cells were incubated for 1 h and relative mRNA abundance of cytokines was quantified by qRT-PCR using RPS-18 gene as housekeeping control. Total RNA, extracted by TRIzol (Ambion, CA, USA) method was used for cDNA preparation (Superscript III cDNA synthesis kit; Invitrogen, CA, USA).qRT-PCR reactions were performed in a Light Cycler® 480 II machine (Roche Diagnostics, USA). Each reaction consisted of 2 μl cDNA template, 5 μl of 2× SYBR® Green PCR Master Mix (Thermo Scientific, PA, USA), 0.25 μl each of forward and reverse primers (10 pmol) and nuclease free water for a final volume of 10 μl. Each sample was run in duplicate.
# S. typhimurium [6] = assay: LIVE/DEAD BacLight membrane permeability assay; type: cell-based, Salmonella typhimurium; conditions: peptide 200μM, SYTO9/PI
# Method: as §4
# S. typhimurium [7] = assay: Scanning and transmission electron microscopy; type: cell-based, Salmonella typhimurium
# Method: as §2
# S. aureus [8] = assay: Time kill kinetics; type: cell-based, Staphylococcus aureus
# Method: as §1
# [9] = tested on: Listeria monocytogenes ATCC-19111; type: cell-based; conditions: ATCC-19111, 24 h
# Method: as §1
# [10] = tested on: Escherichia coli MTCC-0723; type: cell-based; conditions: MTCC-0723, 24 h
# Method: as §1
# [11] = tested on: Bacillus cereus NCDC-0240; type: cell-based; conditions: NCDC-0240, 24 h
# Method: as §1
# [12] = tested on: Pseudomonas aeruginosa ATCC-27853; type: cell-based; conditions: ATCC-27853, 24 h
# Method: as §1
# [13] = tested on: Salmonella typhimurium ATCC-14028; type: cell-based; conditions: ATCC-14028, 24 h
# Method: as §1
# [14] = tested on: Pseudomonas aeruginosa NCDC-0105; type: cell-based; conditions: NCDC-0105, 24 h
# Method: as §1
# [15] = tested on: Acinetobacter johnsonii NCDC-0072; type: cell-based; conditions: 24 h
# Method: as §1
# S. aureus biofilm = assay: Biofilm assay (crystal violet); type: cell-based, Staphylococcus aureus; conditions: peptide at 1× and 2× MIC, 24 h 37°C, crystal violet A570
# Method: as §3
sequence,measurement,setting,value
RIRFPWPWRWPWWRRVRG [buCATHL4C],MIC,[1],0.4 µM
same,MIC,[2],0.2 µM
same,Morphological change of S. aureus cells (SEM/TEM),S. aureus [3],swelling and blebing
same,Reduction in biofilm growth of P. aeruginosa,P. aeruginosa biofilm,substantial
same,Killing rate compared with indolicidin and ampicillin,[4],comparatively better killing rate
same,Clumping (agglutination) of S. aureus after peptide addition,S. aureus [5],immediate clumping
same,TNF-α mRNA response,PBMCs,significantly higher
same,Clumping (agglutination) of S. typhimurium after peptide addition,S. typhimurium [6]; log phase culture,immediate clumping
same,Membrane permeability of latent (stationary phase) S. typhimurium,"S. typhimurium [6]; stationary phase culture, proportion of cells affected comparatively less",affected membrane permeability
same,Formation of pore like structures over the membrane (SEM/TEM),"S. typhimurium [7]; Fig 5H and 5L, S. typhimurium, with extensive wrinkling of membrane",Formation of pore like structures
same,Formation of negative curvature on membrane (SEM/TEM),S. typhimurium [7]; more evident with S. typhimurium,Formation of negative curvature
same,Growth inhibition of S. aureus in time kill kinetics,"S. aureus [8]; peptide at 2× MIC, plating at 0, 1, 4, 12, 24 h",complete growth inhibition
same,Time to complete elimination of S. aureus,"S. aureus [8]; peptide at 4× MIC, time kill kinetics",4 h
same,MIC,[9],1.5 µM
same,MIC,[10],12.5 µM
same,MIC,[11],0.8 µM
same,MIC,[12],0.2 µM
same,MIC,[13],3 µM
same,MIC,[14],6 µM
same,MIC,[15],6 µM
same,Reduction in biofilm growth of S. aureus,S. aureus biofilm,substantial
